In patent publication US20250134870A1, “PATHWAY MODULATOR, PHARMACEUTICAL COMPOSITION HAVING SAME, USE THEREOF, AND THERAPEUTIC METHOD USING SAME” (Jiangsu Yahong Meditech Co., Ltd., priority 2021, published 2025):
Like-named read-outs stand apart in the source and are kept apart here.

Experiments:
[1] = tested on: bleomycin-induced skin fibrosis; experiment: Bleomycin-induced skin fibrosis in mice: skin histopathology (dermal thickness, capillary density score, inflammatory cell infiltration score); type: in vivo, male C57BL/6 mice; conditions: 50 mg/kg IP QD, 28 days
Description: The skin tissue of the lesioned skin was subjected to dehydration, embedding and sectioning according to the pathology SOP, and the tissue was stained by HE and Masson staining. Histopathological analysis was performed according to the following methods:
Masson-stained sections were panoramically scanned by using Nanozomer S210 and the scanned images were subjected to quantitative analysis using Visiopharm VIS6.0 software. The degree of fibrosis was currently represented by the dermal thickness after Masson staining.
The fields of observation was selected in the dermis layer of the lesioned area (the number of fields selected was determined according to the size of the lesioned area) and scored according to the area occupied by capillaries in the area: • 0: No capillary formed • 1: The proportion of capillaries formed was less than 25%; • 2: The proportion of capillaries formed was 25-50%; • 3: The proportion of capillaries formed was 50-75%; • 4: The proportion of capillaries formed was greater than 75%. 3.8.3 Inflammatory cell infiltration score of dermis layer
The fields of observation was selected in the dermis layer of the lesioned area (the number of fields selected was determined according to the size of the lesioned area) and scored according to the degree of inflammatory cell infiltration: • 0: No inflammatory cell infiltration: • 1: A small amount of focal inflammatory cell infiltration; • 2: Scattered diffuse inflammatory cell infiltration: • 3: A large amount of diffuse inflammatory cell infiltration; • 4: A large amount of agglomerated inflammatory cell infiltration.

[2] = tested on: bleomycin-induced skin fibrosis; experiment: Bleomycin-induced skin fibrosis in mice: body weight, spleen weight, spleen/body weight ratio (Example 5); type: in vivo, male C57BL/6 mice; conditions: 50 mg/kg IP QD, 28 days
Description: Isoflurane (2.0 to 2.5%) was used to anesthetize the animals. The fur of the back was removed, and a 1 cm^2 area was selected for intradermal injection of bleomycin (0.3 mg/kg, 100 μL) every two days to establish a skin fibrosis model.
Dosing started on the day of model establishment. Each animal was weighed for the animal body weight before dosing to calculate the volume of administration, wherein the period of administration was 28 days. […] Frequency of administration: twice a day for Nintedanib group and once a day for other groups.
The change in animal body weight was recorded twice a week from the date of model establishment. The clinical manifestations of animals, such as shortness and difficulty of breath, abdominal suction, decreased activity and malaise, were closely observed.
Animals were weighed at the experimental endpoints and the body weight was recorded to calculate the volume of administration. 6 h after dosing, firstly, whole blood was collected from the orbital venous plexus of mice and subjected to blood routine test using an automated Hematology analyzer (Sysmex XS-800i). […]
Then the animals were euthanized by intraperitoneal injection of pentobarbital sodium. The material and order of dissection were as follows: Spleen was collected and weighed and the weight was recorded. […]
The mean±SEM was calculated using Graphpad prism 6.0 software. […]

[3] = tested on: 2,4-dinitrobenzenesulfonic acid (DNBS)-induced colitis; experiment: DNBS-induced colitis in rats: macroscopic evaluation of colon on Day 7 (colon length, weight, ulcer area, CW/CL, CW/BW, CW/CL/BW); type: in vivo, Wistar rats; conditions: for inhibition at 9 mg/kg: Rattus norvegicus, 168 h
Description: (3) Colon observation: after the end of the experiment, all animals were anesthetized with Zoletil (intravenous injection, 25 mg/kg) and the abdominal cavity was opened. Blood was collected from the abdominal aorta with EDTA anticoagulation (centrifugation conditions: 4° C., 2,000 g, 10 min). After the animals were sacrificed by bloodletting, the colon (from the cecum to the anus) was dissected and the colon length was measured immediately. The colon was longitudinally incised and rinsed until clean. Then the colon weight and ulcer area were recorded, and the colon was photographed as a whole and divided into three parts, among which two parts were stored at −80° C. after flash freezing with liquid nitrogen for MPO and cytokine detection, and the other part of colon was fixed with 10% neutral buffered formalin. If the ulcer was irregularly shaped, it could be considered as rectangular, and then its length and width were measured for ulcer area assessment. Ulcer area (cm^2)=ulcer length (cm)×ulcer width (cm).

[4] = tested on: 2,4-dinitrobenzenesulfonic acid (DNBS)-induced colitis; experiment: DNBS-induced colitis in rats: pathological score of colon tissue (H&E); type: in vivo, Wistar rats
Excerpt: The proximal, ulcer (corresponding sites can be taken, if there was no ulcer) and distal parts of the colon tissue fixed by neutral buffered formalin were embedded with paraffin, sectioned (thickness 5 μm), and histopathological score was given by H&E staining.

[5] = tested on: 2,4-dinitrobenzenesulfonic acid (DNBS)-induced colitis; experiment: DNBS-induced enteritis/colitis in rats: body weight and stool score (Example 10); type: in vivo, Wistar rats; conditions: positive control drug
Description: The 90 animals were randomly grouped on Day-1 (i.e., the day before the experiment) based on animal body weight to ensure that the body weight of each group of animals were similar, so as to reduce bias. Rats were fasted for 40 hours before the experiment and were injected subcutaneously with 5% glucose saline (10 mL/kg, once daily) during fasting. • Experimental grouping:
On Day 1 of the experiment, fasting rats were anesthetized by intraperitoneal injection with Zoletil (25 mg/kg Tiletamine and 25 mg/kg Zolazepam) and 5 mg/kg Xylazine.
In groups G2-G6, a hose was inserted from the anus to left colic flexure (about 8 cm from the anus) and colitis was induced by DNBS enema (0.5 mL/animal) in rats. The normal control group (G1) received 30% ethanol enema by the same process. The head of the animal after enema was lowered for 15 min, and then the animal was kept in Trendelenburg position until waked to avoid backflow of the enema fluid.
The percentage of body weight was calculated according to the following formula: (body weight on Day X-initial weight)/initial weight]×100%.
(2) Stool score: during the experiment, the stool state of rats was scored daily (0=normal, 1=wet/sticky, 2=loose, 3=liquid).

[6] = tested on: dextran sulfate sodium (DSS)-induced colitis; experiment: DSS-induced colitis in mice: body weight, DAI score, colon density (Examples 1, 3); type: in vivo, C57BL/6J mice; conditions: for Colon density: experimental endpoint
Description: 8-10 week old female C57BL/6J mice purchased from Charles River Laboratories were used. The mice were housed in a room at constant temperature (20+2° C.) (5 mice per cage) with a 12-hour light-dark cycle. All protocols were approved by the Institutional Animal Care and Use Committee of WuXi AppTec. These mice were adapted to the housing conditions at the animal experiment center of WuXi AppTec for at least three days prior to the experiment. […] At the experimental endpoint (see hereinafter), mice were euthanized and endpoint samples were obtained. Mice in the normal group were not given 3% DSS aqueous solution to induce colitis and were free to drink blank water. […] The animal body weight and DAI score were assessed under double-blind conditions, that is, the researchers collected the body weight data of mice and observed and scored the stool characteristics and blood stools every day, without knowing the group and dosing regimen. The DAI score was the sum of the weight loss score, stool score and bleeding score. […] The data were analyzed by analysis of variance, specifically by using the following process: using Graph Pad Prism 6.0 software to carry out post-hoc Dunnett's multiple comparison test. […] Data were expressed as mean±S.E.M. The experimental endpoint was 24 hours after administration on Day 8 for the positive drug control group and the Test group 1 #to Test group 7 #of Example 1; the experimental endpoint of the normal group and the solvent group was the same as that of the positive drug control group and Test group 1 #to Test group 7 #.

norepinephrine level = conditions: cited from earlier work
[7] = 1200 mg; 10 consecutive days; NCT02151994; cited from earlier work
[8] = tested on: mesenteric lymph node immune cell subpopulations; experiment: Flow cytometry of immune cell subpopulations and cytokines in mesenteric lymph nodes of DSS colitis mice (Examples 2, 4); type: in vivo, C57BL/6J mice; conditions: 100 mg/kg PO QD × 8 days (Test group 7#) vs solvent group
Description: The experimental endpoint was 24 hours after administration on Day 8 for the positive drug control group and the Test group 1 #to Test group 7 #of Example 1; the experimental endpoint of the normal group and the solvent group was the same as that of the positive drug control group and Test group 1 #to Test group 7 #.
At the experimental endpoint, mesenteric lymphatic nodes were collected and treated as follows:
1) The mesenteric lymph nodes were gently grinded and filtered with a […] strainer (BD bioscience, Catalog No. 352350) to obtain a cell suspension, and the cells were counted.
2) The cells were suspended in a suspension solution (the suspension solution was prepared by the following process: diluting the cell activation mixture with a mixture of 90 v % 1640 medium and 10 v % fetal bovine serum to a concentration of 1×), the cell density was adjusted to 2.5×10^7/mL, and the cells were incubated at 37° C. for 5 hours. 3) The cells were washed with Dulbecco's Phosphate Buffered Saline, and stained with viable/dead stain (stain No. 12 in Table 5) at room temperature for 15 min to distinguish between viable cells and dead cells; the cells were washed with staining buffer (prepared by mixing fetal bovine serum and Dulbecco's Phosphate Buffered Saline at a volume ratio of 2:98), Fc block working solution (prepared by mixing Fc block and staining buffer at a volume ratio of 1:200) was added, and the cells were incubated at room temperature for 15 minutes.
4) The cells were surface labeled with 100 μL of antibody staining solution for flow cytometry without washing and incubated at 4° C. for 30 minutes.
5) The cells were washed once with staining buffer, 100 μL of cell fixative solution was added, and the cells were incubated at 4° C. overnight.
6) 200 μL of cell permeabilization solution was added and incubated at 4° C. for 30 minutes.
7) After washing with 250 μL of cell permeabilization solution, the cells were suspended with 100 μL of staining buffer and fluorescence was detected with a BD LSRFortessa instrument.
8) The cell subpopulations analyzed by flow cytometry included CD4+ T cell subpopulation, IL-17A+CD4+ T cell subpopulation, IFN-γ+CD4+ T cell subpopulation, TNF-α+CD4+ T cell subpopulation, CD25+FOXP3+ Treg cell subpopulation; CD8+ T cell subpopulation, IL-17A+CD8+ T cell subpopulation, IFN-γ+CD8+ T cell subpopulation, TNF-α+CD8+ T cell subpopulation; CD69+B220+ B cell subpopulation and NK1.1+CD107a+ NK cell subpopulation.

[9] = rats with spontaneous hypertension

## Cc1ccc(NC(=O)c2ccc(CN3CCN(C)CC3)cc2)cc1Nc1nccc(-c2cccnc2)n1 [Imatinib]
[1]
  inflammatory cell infiltration of the lesioned skin: visibly reduce
  subdermal capillary hyperplasia: visibly reduce
[2]
  death of animals: One animal in Imatinib group died on Day 28

## C[C@]12C=CC(=O)C=C1CC[C@@H]1[C@@H]2C(=O)C[C@@]2(C)[C@H]1CC[C@]2(O)C(=O)CO [Prednisone]
[3]; G3, 9 mg/kg PO QD × 7, read-out: IR1 (inhibition rate 1, CW/CL/BW)
  inhibition at 9 mg/kg: 44.2%
[3]; G3, 9 mg/kg PO QD × 7, read-out: IR2 (inhibition rate 2, CW/BW)
  inhibition at 9 mg/kg: 50.1%
[3]; G3, 9 mg/kg PO QD × 7, read-out: IR3 (inhibition rate 3, CW/CL)
  inhibition at 9 mg/kg: 46.5%
[3]; mean, G3, 9 mg/kg PO QD × 7
  BW: 162.92 g
  CW/BW ×100: 0.99
  Ulcer area: 1.26 cm^2
  Ulcer length: 0.77 cm
  Ulcer width: 0.85 cm
[3]; positive control drug
  colon weight: significantly reduce
[4]; mean, G3, 9 mg/kg PO QD × 7
  Pathological score, Distal end, Damage: 1.33
  Pathological score, Distal end, Inflammation: 2.00
  Pathological score, Proximal end, Damage: 0.80
  Pathological score, Proximal end, Inflammation: 1.73
  Pathological score, Total score, Damage: 4.00
  Pathological score, Total score, Inflammation: 6.07
  Pathological score, Ulcer end, Damage: 1.87
  Pathological score, Ulcer end, Inflammation: 2.33
[4]; positive control drug
  inflammatory cell infiltration score of colon ulcer end: significantly reduce
[5]
  stool form score AUC: significantly reduce

## Fc1cc(F)c2c(c1)C[C@@H](n1c(CCNCc3ccccc3)c[nH]c1=S)CO2 [Zamicastat]
[6]; 10 mg/kg PO QD × 8 days
  Body weight on Day 7, g: 19.26 g
  Body weight on Day 7/initial body weight, %: 91.68%
  Body weight on Day 8, g: 18.37 g
  Body weight on Day 8/initial body weight, %: 87.45%
  DAI score on Day 8: 6.30
  Colon density: 35.04 mg/cm
[6]; 30 mg/kg PO QD × 8 days
  Body weight on Day 7, g: 18.96 g
  Body weight on Day 7/initial body weight, %: 91.04%
  Body weight on Day 8, g: 17.78 g
  Body weight on Day 8/initial body weight, %: 85.35%
  DAI score on Day 8: 6.30
  Colon density: 36.37 mg/cm
[6]; 100 mg/kg PO QD × 8 days
  Body weight on Day 7, g: 19.66 g
  Body weight on Day 8, g: 18.75 g
  Body weight on Day 8/initial body weight, %: 89.17%
  DAI score on Day 8: 5.20
[6]; Nepicastat 30, Etamicastat 100, Zamicastat 100 mg/kg PO QD × 8 days (Test groups 1#, 4#, 7#) vs solvent group
  severity of DSS-induced colitis and disease activity: ameliorated the severity of DSS-induced colitis and reduced disease activity
Norepinephrine level; compared with Nepicastat
  brain-blood-barrier penetration: lower levels of brain-blood-barrier penetration
Norepinephrine level; [9]
  effect on brain tissue (norepinephrine level): no effect on brain tissue
  norepinephrine level in peripheral sympathetic innervation tissues: reduce the norepinephrine level in peripheral sympathetic innervation tissues
[7]
  safety: relatively good safety
[8]
  proportion of CD4+ T cell subpopulation: reduce the proportion
  proportion of CD25+FOXP3+ Treg cell subpopulation: increase the proportion
  secretion of IFN-γ by CD4+ T cell subpopulation: reduce the secretion
  secretion of IL-17A by CD4+ T cell subpopulation: reduce the secretion
  secretion of TNF-α by CD4+ T cell subpopulation: reduce the secretion
